Assay results from patent publication US7056656B1, “Tat-derived oligourea and its method of production and use in high affinity and specific binding HIV-1 TAR RNA” (priority 1999, dated 2006).

Legend:
[1] = test system: HIV-1 TAR RNA (wild-type); experiment: Direct and competition electrophoretic mobility assays, oligourea/peptide-TAR RNA complexes; type: binding; conditions: for Kd: multiple sets of experiments, read-out: KD (equilibrium dissociation constant) for TAR RNA
Description: (§1) FIG. 2A: Secondary structure of wild-type TAR RNA used in this study. Wild-type TAR RNA spans the minimal sequences that are required for Tat responsiveness in vivo ^14 and for in vitro binding of Tat-derived peptides.^9 Wild-type TAR contains two non-wild-type base pairs to increase transcription by T7 RNA polymerase. Mutant M0 TAR contained no bulge residue in its sequence. In mutant G26C, a base-pair in the upper stem of TAR RNA, G26-C39 was substituted by C26-G39. FIG. 2B: Electrophoretic mobility shift analysis for the Tat-derived oligourea binding to wild-type and trinucleotide bulge mutant (M0) TAR RNA. 5′-end labeled TAR RNAs (40 nM) were heated to 85° C. for three minutes mm and then cooled to room temperature in TK buffer (50 mM Tris-HCl pH 7.4), 20 mM KCl, 0.1% Triton X-100). The oligourea (150 nM) was added to wild-type or mutant TAR and incubated at room temperature for one hour. After adding 30% glycerol, the oligourea-RNA complexes were resolved on a non-denaturing 12% acrylamide gel and visualized by autoradiography or phosphorimaging. FIG. 2C: Specificity of the oligourea-TAR complex formation determined by competition experiments. Oligourea-RNA complexes were formed in the presence of increasing concentrations of unlabeled wild-type or mutant TAR RNAs. Concentrations of the competitor RNAs in lanes 3, 4, 5, 6 were 50, 100, 150, and 200 nM, respectively. Lanes 1 and 2 were marker lanes showing RNA and oligoureaRNA complexes. Oligourea-RNA complexes are labeled as R—P.
To compare the RNA-binding affinities of the oligourea to natural peptide, we synthesized a tat-derived peptide (Tyr47 to Arg57) containing the RNA-binding domain of Tat protein (FIG. 1). Dissociation constants of the Tat peptide-RNA complexes were determined from multiple sets of experiments under the same conditions used for oligourea-TAR RNA complexes. […] A relative dissociation constant (KREL) can be determined by measuring the ratios of wild-type Tat peptide to the oligourea dissociation constants (KD) for TAR RNA.

[2] = test system: mutant TAR RNA without the bulge residues (M0); experiment: Electrophoretic mobility shift analysis with trinucleotide bulge mutant (M0) TAR RNA; type: binding, HIV-1; conditions: M0 TAR RNA 40 nM, oligourea 150 nM
Description: as §1, with “Lanes 1 and 2 were marker lanes showing RNA and oligoureaRNA complexes. Oligourea-RNA complexes are labeled as R—P.” left out

[3] = test system: HIV-1 TAR RNA (wild-type); experiment: Specificity of oligourea-TAR complex formation by competition with unlabeled TAR RNAs; type: binding
Description: as §1
Specificity of the oligourea-TAR RNA complex formation was addressed by competition experiments (FIG. 2c).
Two base-pairs immediately above the pyrimidine bulge are critical for Tat recognition.^9 To determine whether the oligourea recognizes specific base-pairs in the stem region of TAR RNA or only a trinucleotide bulge containing RNA, we synthesized a TAR mutant where the G26-C39 base pair was substituted by a C26-G39 base-pair (FIG. 2a).

proteinase K [4] = biological target: T1, proteinase K (Parengyodontium album, UniProt P06873); experiment: Proteinase K digestion of RNA crosslink products (protease stability); type: in vitro ADME; conditions: 55° C., fifteen minutes after UV irradiation
T1 sequence (P06873 106-384): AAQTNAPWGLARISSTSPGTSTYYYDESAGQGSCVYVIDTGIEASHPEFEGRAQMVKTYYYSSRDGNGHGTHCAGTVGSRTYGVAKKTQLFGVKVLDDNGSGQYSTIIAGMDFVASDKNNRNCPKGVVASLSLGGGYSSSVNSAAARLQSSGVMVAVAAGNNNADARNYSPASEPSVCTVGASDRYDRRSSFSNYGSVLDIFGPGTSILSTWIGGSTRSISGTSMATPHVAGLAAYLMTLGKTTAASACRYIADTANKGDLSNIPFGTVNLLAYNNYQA
Protocol: FIG. 3. Site-specific photocrosslinking reaction of TAR RNA labeled with 4-thioUracil at position 23 with the oligourea. For photochemical reactions, RNA duplex was prepared by hybridizing two strands.^5,7 Strand 1 of the duplex was 5′-end labeled with 32p Preformed RNA duplexes (40 nM) in the absence or presence of the oligourea (100 nM) were irradiated ([…]) and analyzed by denaturing gels as described earlier.^5,7 Proteinase K digestion was performed at 55° C. for fifteen minutes after LW irradiation. R—R and R—P XL indicate the RNA—RNA and RNA-oligourea crosslink, respectively.
To probe the oligourea-RNA interactions and determine the proteolysis stability of oligourea, we synthesized TAR RNA containing 4-thioU at position 23 and performed photocrosslinking experiments as described earlier (FIG. 3).^5,7 Irradiation of the oligourea-RNA complex yields a new band with electrophoretic mobility less than that of the RNA (lane 4). Both the oligourea and UV (360 nm) irradiation are required for the formation of this crosslinked RNA-oligourea complex (see lanes 3 and 4). Since the crosslinked oligourea-RNA complex is stable to alkaline pH (9.5), high temperature (85° C.) and denaturing conditions (8M urea, 2% SDS), we conclude that a covalent bond is formed between TAR RNA and the oligourea during the crosslinking reaction.

[5] = test system: Tat transactivation (HIV-1 LTR); experiment: Inhibition of Tat transactivation, CAT activity from integrated HIV-1 LTR of HL3TI cells; type: cell-based; conditions: luciferase as control
Protocol: FIG. 4. […] CAT activity expressed from the integrated HIV-1 LTR of HL3TI Cells with increasing amounts of oligourea is shown. Luciferase activity was a control experiment to monitor the transfection inhibition of pSV2Tat by the addition of oligourea. CAT and Luciferase activities were measured from multiple experiments and normalized to 100%.

proteinase K [6] = biological target: T1, proteinase K; conditions: similar proteinase K treatment; cited from earlier work
[7] = test system: Tat peptide (47-57), arginine-rich RNA-binding domain (HIV-1); experiment: EMSA; conditions: printed 0.78+0.05; same conditions as the oligourea
[8] = biological target: Tat-derived oligourea (unnatural urea backbone carrying Tat 48-57 side chains) (HIV-1) (UniProt P04608); experiment: EMSA

Substance: GRKKRRQRRR [oligourea]
- relative dissociation constant KREL (ratio of wild-type Tat peptide KD to oligourea KD for TAR RNA) ([1]; wild-type TAR RNA): 7.09
- binding to TAR RNA (mobility shift) ([1]; wild-type TAR RNA 40 nM, oligourea 150 nM): able to bind TAR RNA
- Kd ([1]; wild-type TAR RNA): 0.11 ± 0.07 µM
- binding to mutant TAR RNA without the bulge residues [2]: failed to bind
- competition by mutant TAR (G26C) for oligourea binding to TAR RNA ([3]; competitor G26C TAR RNA (G26-C39 replaced by C26-G39)): did not inhibit
- competition by mutant TAR RNA without a trinucleotide bulge for oligourea binding to wild-type TAR RNA ([3]; competitor M0 TAR RNA 50-200 nM): not able to compete
- competition by mutant TAR RNA with one base bulge for oligourea binding to wild-type TAR RNA ([3]; competitor one base bulge TAR RNA, data not shown): not able to compete
- oligourea-RNA complex formation on addition of unlabeled wild-type TAR RNA ([3]; competitor wild-type TAR RNA 50-200 nM): inhibited
- stability of RNA crosslink products to proteinase K digestion (proteinase K [4]): completely stable
- Tat transactivation (CAT activity) with increasing amounts of oligourea [5]: Inhibition of Tat transactivation

Substance: Tat peptide (47–57): tat-derived peptide (Tyr47 to Arg57) containing the RNA-binding domain of Tat protein [reference compound]
- Kd ([1]; wild-type TAR RNA): 0.78 µM

Substance: Tat: Tat of the Tat-TAR photocrosslink products from earlier cited work (ref. 5)
- stability of Tat-TAR photocrosslink products to proteinase K treatment (proteinase K [6]): complete loss of RNA-protein crosslink

Substance: wild-type TAR RNA
- Kd [7]: 0.78 µM
- Kd [8]: 0.11 µM
